According to patent US8889411B2, “Modulation of stem and progenitor cell differentiation, assays, and uses thereof” (Anthrogenesis Corporation, priority 2002, dated 2014):

Key:
[1] = test system: CD1a+CD14− and CD1a−CD14+ cells (DC progenitors); assay: Detection of apoptosis (Annexin V-FITC / propidium iodide) in isolated DC progenitors; format: cell-based, human; details: 1 μM; 2 days; GM-CSF and TNF-α
Method: Detection of apoptosis: Phosphatidyl serine exposure was determined using Annexin V-FITC staining in combination with propidium iodide (BD Pharmingen apoptosis detection kit I) following manufacturer instruction.
Block in DC generation is not mediated by specific killing of the DC progenitors: To determine if the decrease in DC progenitors was mediated by specific killing, CD34^+ progenitor cells were cultured for a period of 6 days in the presence of SCF, Flt-3L, GM-CSF and TNF-α. At day 6, CD1a^+CD14^− and […] cells (DC progenitors) were isolated by magnetic cell sorting (Miltenyi). Purified populations were cultured for an additional 2 days in the presence of GM-CSF and TNF-α with or without ACTIMID™ (1 μM).

[2] = test system: allogenic CD3+ T cells stimulated by CD34+-derived DC cells; assay: T cell proliferation assay (Mixed Leucocyte Reaction); format: cell-based, human; details: compared to DMSO control
Method: T cell proliferation assay: After 13 days of culture, CD34^+-derived DC cells were collected, and after treatment with mitomycin C (50 μg/ml, Sigma), used as stimulators cells for allogenic adult CD3^+ T cells purified from peripheral blood mononuclear cells (PBMCs) from healthy volunteers. CD3^+ T responder cells were used at a concentration of 5×10^4 cells/well. Stimulators cells were added in graded doses to the T cells in black 96-well flat bottom, clear bottom tissue culture plates for chemiluminescence detection. Cultures were performed in RPMI 1640 medium supplemented with 10% heat-inactivated FBS, glutamine and Penicillin-streptomycin. After 6 days of culture, cell proliferation was measured with the BrdU chemiluminescence assay (Roche, Nutley N.J.), following manufacturer instructions. Results are presented as the mean±SD obtained from triplicate cultures.

[3] = test system: adult SJL/L mice with bone marrow ablation by lethal irradiation; assay: Transplantation of ACTIMID-pretreated nucleated cells into lethally irradiated mice; format: in vivo, mouse; details: for % Starting Body Weight at 50 days: irradiated mice
Method: Placental nucleated cells (PLNC), umbilical cord blood nucleated cells (UCBNC) and bone marrow cells (BMNC) were obtained from human donors. PLNC and UCBNC were obtained from placenta and umbilical cord using methods described in Section 5.4 above.
The cells were pretreated by incubation in DMEM supplemented with 2% human CB serum with 10 µg/ml ACTIMID™ for 24 hours. Cells were then washed, resuspended in autologous plasma, and administered intravenously to recipient adult SJL/L mice (Jackson Laboratories) that had bone marrow ablation produced by lethal irradiation (900cGy) according to standard methods. Such irradiation is better than 90% lethal by 50 days post-irradiation (Ende et al., 2001, Life Sciences 69(13):1531-1539; Chen and Ende, 2000, J. Med. 31: 21-30; Ende et al., 2000, Life Sci. 67(1):53-9; Ende and Chen, 2000, Am. J. Clin. Pathol. 114: 89).

[4] = test system: Human Cord Blood CD34+ Cells; assay: FACS analysis of proliferation and differentiation of cord blood CD34+ cells cultured with IL3, G-CSF and Kit-ligand; format: cell-based; details: for CD11b+ Cell Population / CD34+CD38+ Cell Population / CD34+CD38− Cell Population: 7 days
Method: CB CD34+ cells were initiated at 4×10^4 cells/ml in a 24-well plate in 20% FCS IMDM (fetal calf serum/Iscove's Modified Dulbecco's Medium) supplemented with cytokines (1 L3, GCSF and Kit-ligand) (R&D Systems, Inc.). Thalidomide (Thal), ACTIMID™ or REVIMID™ were included in the culture at three different concentrations: 5 μg/ml, 1 μg/ml and 0.3 μg/ml. The same volumes of DMSO were used as controls. A negative control without, any compound was also used (indicated by “none” in FIGS. 3-7). Cells were cultured at 37° C. and 5% CO2 in a humidified incubator for 7 days. Cells were then harvested from each well.
The total cell number from each well was determined by counting in a CELL-DYN® 1700 (Abbott Diagnostics) and the expression of CXCR4, CD45, CD34, CD38, CD 1 lb and Gly-A expression was analyzed by FACS (fluorescence-activated cell sorting) staining (FIGS. 3-7).
CB cells from two different donors (CB2276 and CB2417) were cultured, assayed and analyzed separately (Table 1).

[5] = test system: Cord blood CD34+ hematopoietic progenitor cells; assay: Colony forming unit (CFU) generation from cord blood CD34+ cells; format: cell-based, human; details: IL-3, G-CSF, kit-ligand, vs DMSO
Method: FIG. 1. Bar graph indicating results of culturing cord blood CD34+ cells in the presence of Thalidomide (THD), ACTIMID™, and REVIMID™ at concentrations of 1 μg/ml and 10 μg/ml. An equal volume of DMSO was used as a negative control. Hematopoietic colonies of burst forming units-erythroid (BFU-E), colony forming units-erythroid (CFU-E), colony forming units-granulocyte macrophage (CFU-GM) and total numbers of colonies (CFU-Total) were scored under the light microscope at day 14 of culture. Y-axis: numbers of colonies. See Section 6.1 for details.
Cord blood CD34+ hematopoietic progenitor cells were plated in 96 well cultivation dishes at a density of 1000 cells per well in IMDM supplemented with 20% fetal calf serum and cytokines (IL-3, G-CSF and kit-ligand (R&D Systems, Inc.) The cells were exposed to Thalidomide (Thal), ACTIMID™ and REVIMID™, or DMSO (a control compound), and allowed to culture for 6 days. […] After culturing, cells were stained and sorted with a fluorescence activated. cell sorter (FACS). 400 μL of stained cells were harvested and diluted to 1.0 ml with 1% fetal calf serum in phosphate buffered saline (PBS). Cells were counted to determine the effect of modulation of stem cell differentiation.

SMILES: Nc1cccc2c1C(=O)N(C1CCC(=O)NC1=O)C2=O (centres unmarked) [ACTIMID™, 4-(Amino)-2-(2,6-dioxo(3-piperidyl))-isoindoline-1,3-dione]
- level of annexin V+-PI− (early apoptosis) and annexin V+-PI+ (late apoptosis) populations [1]: no significant increase
- capacity to stimulate the proliferation of T-cells ([2]; compound from day 1 to day 12): reduced capacity
- capacity to stimulate the proliferation of T-cells ([2]; compound from day 6 to day 12): comparable
- survival of transplanted PLNC, UCBNC and BMNC ([3]; ACTIMID pre-treatment of cells): increases the survival
- # of Animals Dead at 50 days ([3]; PLNC 5 × 10^6 + ACTIMID pre-treatment (10 g/ml, 24 hours) intravenous, 4 animals irradiated (900cGy)): 0
- % Starting Body Weight at 50 days ([3]; PLNC 5 × 10^6 + ACTIMID pre-treatment intravenous): 102%
- # of Animals Dead at 50 days ([3]; UCBNC 10 × 10^6 + ACTIMID pre-treatment intravenous, 3 animals irradiated (900cGy)): 0
- % Starting Body Weight at 50 days ([3]; UCBNC 10 × 10^6 + ACTIMID pre-treatment intravenous): 84%
- up-regulation (increased proliferation) of CD34+ cells ([4]; CB2276 and CB2417 cultures): up-regulation
- expression of CXCR4 ([4]; FACS analysis of surface proteins): inhibitory effect
- yield of cells ([4]; IL-3, KL and G-CSF, compared with the DMSO control): slightly higher number of cells
- effect on the proliferation of CD34+ cells ([4]; IL-3, KL and G-CSF, compared with the negative control (none)): do not have a significant effect
- CD11b+ Cell Population ([4]; donor CB2276, 0.3 μg/ml): 6.9%
- CD34+CD38+ Cell Population ([4]; donor CB2276, 0.3 μg/ml): 0.2
- CD34+CD38− Cell Population ([4]; donor CB2276, 0.3 μg/ml): 5.9
- CD11b+ Cell Population ([4]; donor CB2276, 1 μg/ml): 3.8%
- CD34+CD38+ Cell Population ([4]; donor CB2276, 1 μg/ml): 0.2
- CD34+CD38− Cell Population ([4]; donor CB2276, 1 μg/ml): 15.0
- CD11b+ Cell Population ([4]; donor CB2276, 5 μg/ml): 1.6%
- CD34+CD38+ Cell Population ([4]; donor CB2276, 5 μg/ml): 0.2
- CD34+CD38− Cell Population ([4]; donor CB2276, 5 μg/ml): 17.3
- CD11b+ Cell Population ([4]; donor CB2417, 0.3 μg/ml): 8.4%
- CD34+CD38+ Cell Population ([4]; donor CB2417, 0.3 μg/ml): 0.2
- CD34+CD38− Cell Population ([4]; donor CB2417, 0.3 μg/ml): 5.9
- CD11b+ Cell Population ([4]; donor CB2417, 1 μg/ml): 3.9%
- CD34+CD38+ Cell Population ([4]; donor CB2417, 1 μg/ml): 0.8
- CD34+CD38− Cell Population ([4]; donor CB2417, 1 μg/ml): 12.0
- CD11b+ Cell Population ([4]; donor CB2417, 5 μg/ml): 2.5%
- CD34+CD38+ Cell Population ([4]; donor CB2417, 5 μg/ml): 0.1
- CD34+CD38− Cell Population ([4]; donor CB2417, 5 μg/ml): 14.7
- CD38 status of the majority of CD34+ and CD34− cells ([4]; treated cell populations): CD38−
- level of CD11b expression by mean immunofluorescence (MIF) ([4]; treated cells): decreased
- generation of erythropoietic colonies (BFU-E and CFU-E) [5]: suppress
- generation of leukocyte and platelet forming colonies (CFU-GM) [5]: augmenting
- total colony forming unit (CFU-Total) production [5]: enhancing
